{"source": "patent US20190352511A1", "about": "“LANTHANIDE COMPLEXES COMPRISING DENDRIMERS” (UNIVERSITE D'ORLEANS, priority 2017, published 2019)", "key": {"HeLa cells [1]": {"system": "HeLa cells", "test": "Cellular internalization by flow cytometry (NaN3 or 4° C. inhibition)", "type": "cell-based, human", "conditions": "1.5 μM; for Cellular internalization, Active (percentage inhibited with NaN3): NaN3 treatment", "procedure": "HeLa cells were incubated for 30 min with a 1.5 μM concentration solution of chromophores and dendrimers (Ln8-)G3P-(Bodipy1)n (n=16, 32; Ln=Yb^3+, Nd^3+) as control. In order to block the active and passive transport pathways, HeLa cells were treated with NaN3 (active internalization inhibitor) or pre-incubated at 4° C. for 30 min (inhibition of active and passive pathways) before incubation with the dendrimers.\nCytometry has been used to quantify cell internalization of dendrimers and to better understand signal intensity differences observed in confocal microscopy. The mechanisms of passive (non-dependent energy) and active (energy dependent) internalization of cells have been studied. Active transport was inhibited with sodium azide (NaN3), while incubation at 4° C. inhibited active and passive transport pathways by increasing the plasma membrane stiffness of HeLa cells (S. Vranic, N. Boggetto, V. Contremoulins, S. Mornet, N. Reinhardt, F. Marano, A. Baeza-Squiban, S. Boland, Deciphering the mechanisms of cellular uptake of nanoparticles by accurate evaluation of internalization for cytometry, Particle and Fiber Toxicology, 10 (2013) 1-16).\nHowever, for both types of dendrimers, internalization is consistently higher for those containing Yb^3+ than for those containing Nd^3+. […] For the chromophore compound 9, a relatively strong emission signal was observed and corresponding to 65% internalization of Yb8G3P-(Bodipy1)16. […] Dendrimers enter cells through active and passive transport pathways (FIG. 8). The relative percentages of active or passive internalization vary according to the number of Bodipy chromophore and the presence of Ln^3+. […] However, further studies are needed to clarify the exact mechanisms of active transportation. […]"}, "[2]": {"test": "Photobleaching / photostability under continuous illumination", "type": "physicochemical", "conditions": "10 μM in DMSO, uninterrupted illumination at 670 nm for 3 h, emission at 735 nm", "procedure": "The experiments were carried out for a solution at 10 μM in DMSO and under uninterrupted illumination at 670 nm, the emission being collected at 735 nm.\nTo test the photostability of the system, the chromophore (compound 9) and the dendrimers (Ln8-)G3P-(Bodipy1)n (n=16, 32; Ln =Yb^3+, Nd^3+) were continuously illuminated with 670 […]. nm and the emission signal was monitored at 735 nm. […] However, the photostability of G3P-(Bodipy1)16 could be improved by the incorporation of Ln^3+. In addition, it turned out to be dependent on the nature of the lanthanides. […] As for the initial chromophore, compound 9 (FIG. 5) loses 75% of its luminescence intensity after 3 hours of illumination. Therefore, in general, the attachment of the chromophore moieties to the dendrimer structure and the presence of Ln^3+ can be advantageously used to provide and enhance the photostability of the probe.\nThe continuous illumination of G3P-(Alkyne)x-(Cyanine)y (x=22-24, y=8-10) with a light centered at 665 nm makes it possible to estimate the photostability of the dendrimers which appears to be rather weak. (FIG. 11)."}, "Absorption spectra": {"test": "Absorption spectra", "type": "physicochemical", "conditions": "DMSO, low energy main band at 672 nm", "excerpt": "For the sake of comparison, the absorption spectrum of compound 9 is multiplied by a factor corresponding to the number of chromophores attached to the branches of the dendrimer, for example, by 16 for (Ln8-) G3P-(Bodipy1)16 and by 32 for (Ln8-) G3P-(Bodipy1)32.\nThe absorption spectrum of the Bodipy chromophore (compound 9) measured in a DMSO solution has a broad band of up to 770 nm with a low energy main band at 672 nm (ϵ=2.1.10^5 M^−1 cm^−1), FIG. 3). […] On the other hand, the molar coefficient of absorption increases with the number of Bodipy chromophore units attached.\nAbsorption spectra of the Yb8-G3P-(TPP)32 complex were recorded in DMSO and in the DMSO/(Opti-MEM/FCS, 6: 94%) mixture (FIG. 13)."}, "[3]": {"test": "Absolute quantum yields (Q) in DMSO solution", "type": "physicochemical", "excerpt": "The absolute quantum yields of the chromophore (compound 9) and dendrimers (Ln8-)G3P-(Bodipy1)n (n=16, 32; Ln=Yb^3+, Nd^3+) are summarized in Table 1. Significant decreases (6 and 3.4 times) in quantum emission efficiencies from the aza-BODIPY-COOH chromophoric moieties for the functionalized dendrimers, G3P-(aza-BODIPY)32 and G3P-(aza-BODIPY)16, respectively. […] On the other hand, the Q values are increased by 1.7 and 1.4 times for G3P-(Bodipy1)32 during the encapsulation of the lanthanide cations Yb^3+ and Nd^3+, respectively."}, "HeLa cells [4]": {"system": "HeLa cells", "test": "Confocal fluorescence microscopy imaging", "type": "cell-based, human", "conditions": "30 min incubation, 1.5 μM, λex 633 nm (laser 6%), λem 650-800 nm", "procedure": "HeLa cells after 30 min of incubation with a solution of 1.5 μM compound 9 and dendrimer (Ln8-)G3P-(Bodipy1)n (n=16, 32; Ln=Yb^3+, Nd^3+). The emission of aza-BODIPY (λex: 633 nm, λem: 650-800 nm) was observed under excitation at 633 nm (laser power at 6%). (Top) Yb8-G3P-(Bodipy1)16 (A), Nd8-G3P-(Bodipy1)16 (B), G3P-(Bodipy1)16 (C), Compound 9 (D) and (bottom) Yb8-G3P-(Bodipy1)32 (A), Nd8-G3P-(Bodipy1)32 (B), G3P-(Bodipy1)32 (C), untreated cells (D). The images are taken in the plane of the cellular nucleus. The white arrows indicate the specific localization of the dendrimers in the lysosomes and the yellow arrows indicate the filopods. 63× magnification lens.\nConfocal microscopy experiments were performed to confirm the intracellular localization of the dendrimers (FIG. 7). For this purpose, HeLa cells were incubated for 30 min with a concentration solution of 1.5 μM, which corresponds to ˜89-100% of cell viability. The fluorescence of the dendrimers was observed using a 633 nm laser as the excitation source and the emission of aza-BODIPY was collected between 650 and 800 nm with an optical cut of 1 μm in the z axis. The same laser power was used for the different experiments to compare the signal intensity variations between different dendrimers."}, "HeLa cells [5]": {"system": "HeLa cells", "test": "Alamar Blue cytotoxicity test", "type": "cell-based, human", "conditions": "up to 2 μM, 24 h incubation", "procedure": "In order to determine the potential toxicity of the described dendrimers, an Alamar Blue test was performed on the HeLa […] carcinoma human cell line (FIG. 6). Different concentrations of chromophores (compound 9) and dendrimers (Ln8-)G3P-(Bodipy1)n (n=16, 32; Ln=Yb^3+, Nd^3+) were tested."}}, "data": [{"smiles": "COc1ccc(-c2cc(-c3ccccc3)n(B(F)F)c2/N=C2\\N=C(c3ccccc3)C=C2c2ccc(OCC(=O)O)cc2)cc1", "note": "[Compound 9, (Z)-2-(4-(2((1-(difluoroboryl)-3-(4-methoxyphenyl)-5-phenyl-1H-pyrrol-2-yl)imino)-5-phenyl-2H-pyrrol-3-yl)phenoxy)acetic acid]", "values": [{"measurement": "Cellular internalization, Passive", "setting": "HeLa cells [1]; difference between internalization inhibited at 4° C. and inhibited with sodium azide", "value": "81 ± 1", "unit": "%"}, {"measurement": "internalization relative to Yb8G3P-(Bodipy1)16", "setting": "HeLa cells [1]; 30 min incubation", "value": 65, "unit": "%"}, {"measurement": "Cellular internalization, Active (percentage inhibited with NaN3)", "setting": "HeLa cells [1]; 30 min incubation", "value": 19, "unit": "%"}, {"measurement": "Cellular internalization, Active (percentage inhibited with NaN3)", "setting": "HeLa cells [1]; 30 min incubation, listed as Composé{acute over ( )}9, 1.5 µM", "value": "18 ± 4", "unit": "%"}, {"measurement": "decrease of initial luminescence intensity", "setting": "[2]", "value": 75, "unit": "%"}, {"measurement": "molar absorption coefficient ϵ", "setting": "Absorption spectra", "value": "2.1.10^5 M^−1 cm^−1"}, {"measurement": "quantum yield ratio versus Yb8-G3P-(aza-BODIPY)16", "setting": "[3]", "value": 3.4, "unit": "times"}, {"measurement": "Q (%) quantum yield", "setting": "[3]; 10 μM in DMSO, room temperature, excitation 650 nm, emission collected 660 to 850 nm", "value": "8.04(8) %"}, {"measurement": "intracellular emission signal intensity (confocal)", "setting": "HeLa cells [4]", "value": "signal of lower intensity"}, {"measurement": "cell viability", "setting": "HeLa cells [5]", "value": "~100", "unit": "%"}]}]}
